The values below come from patent publication US8686022B2, “7-(piperazine-1-ymethyl)-1H-indole-2-carboxylic acid (phenyl)-amide derivatives and allied compounds as p38 MAP kinase inhibitors for the treatment of respiratory diseases” (Boehringer Ingelheim International GmbH, priority 2008, dated 2014).

Values after ≈ are worked out from the molar mass of the structure shown.

One series concerns the target cytochrome P450 2C9 (Homo sapiens, UniProt P11712). In words: Determining the cyp2C9 activity (O-demethylation of [O-methyl-14C]-naproxen). The note with it: human recombinant cytochrome P450 2C9; 37° C.; <0.4 μM when inhibition >50% at lowest concentration; read-out: CYP 2C9 IC50. Format: in vitro ADME. In outline:
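Recombinant CYP2C9 (40 pmol/ml) with 80 μM [O-methyl-14C]-naproxen in 0.1 M Tris, 5 mM MgCl2; test compound at 50, 10, 2 and 0.4 μM in duplicate. Started with 1 mM NADPH, stopped after 15 min with TCA; 14C-formaldehyde separated by solid-phase extraction and counted by scintillation. IC50 from least-squares fit.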

For the next series, the target named is p38 MAP-kinase (Homo sapiens, UniProt Q16539). In words: p38 MAP-kinase enzymatic assay (phosphorylation of GST-tagged ATF2, chemoluminescence). It counts as biochemical. The note with it: inhibitor concentration 1 μM; activated p38 MAP-kinase 1 nM; ATP 100 μM; read-out: p38 (% Inh @ 1 μM). The gist of the method: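 Activated p38 MAP-kinase (1 nM) preincubated 4 h at ambient temperature with 1 μM compound in HEPES pH 7, MgCl2, DTT, TWEEN20, then reacted 1 h with 10 nM GST-ATF2 and 100 μM ATP. Phospho-ATF2 detected by AlphaScreen-type bead luminescence; percent inhibition at 1 μM versus uninhibited and kinase-free controls.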
Chain of p38 MAP-kinase (Q16539 whole entry): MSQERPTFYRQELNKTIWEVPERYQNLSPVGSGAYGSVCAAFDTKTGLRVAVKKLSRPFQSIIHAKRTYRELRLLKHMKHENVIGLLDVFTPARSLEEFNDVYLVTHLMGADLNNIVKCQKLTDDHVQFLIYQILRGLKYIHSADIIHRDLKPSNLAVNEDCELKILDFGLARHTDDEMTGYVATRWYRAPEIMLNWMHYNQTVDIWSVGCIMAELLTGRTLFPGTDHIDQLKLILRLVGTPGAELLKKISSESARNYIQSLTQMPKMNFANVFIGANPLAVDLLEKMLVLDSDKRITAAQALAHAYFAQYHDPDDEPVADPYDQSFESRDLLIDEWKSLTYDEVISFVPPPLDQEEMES

Series [1] is described as follows: Determining the solubility (saturated solution in McIlvaine buffer pH 7.4, UV spectroscopy). Format: physicochemical. The note with it: pH 7.4, aqueous buffer, thermodynamic from solid, shaken 2 hours, 0.75 mg solid in 0.75 ml. In outline:
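Excess solid (0.75 mg per 0.75 ml) shaken 2 h in McIlvaine buffer pH 7.4, then filtered through 0.45 μm PTFE membrane with first drops discarded. Dissolved amount measured by UV spectroscopy.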

Chain of cytochrome P450 2C9 (P11712 whole entry): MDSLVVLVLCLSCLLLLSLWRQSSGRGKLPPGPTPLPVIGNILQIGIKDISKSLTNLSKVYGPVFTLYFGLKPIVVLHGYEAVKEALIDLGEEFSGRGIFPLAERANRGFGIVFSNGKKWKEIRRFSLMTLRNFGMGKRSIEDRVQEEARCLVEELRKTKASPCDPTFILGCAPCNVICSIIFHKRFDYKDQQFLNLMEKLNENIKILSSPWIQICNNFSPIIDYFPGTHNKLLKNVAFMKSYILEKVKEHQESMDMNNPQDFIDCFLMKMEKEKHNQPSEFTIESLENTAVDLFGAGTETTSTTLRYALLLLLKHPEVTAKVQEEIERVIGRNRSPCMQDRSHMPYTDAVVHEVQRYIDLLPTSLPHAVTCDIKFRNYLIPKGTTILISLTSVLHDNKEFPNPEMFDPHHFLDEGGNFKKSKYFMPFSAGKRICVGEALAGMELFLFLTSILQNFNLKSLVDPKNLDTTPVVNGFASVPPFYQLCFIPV

As usually defined, the IC50 is the point on the concentration scale where inhibition reaches its midpoint. A word on the solubility: it is the concentration that dissolves in the medium under given conditions. The low end stands for little dissolved substance, the high end for much dissolved substance. As for `CNC(=O)c1cc(C(C)(C)C)cc(NC(=O)c2cc3cccc(CN4CCN(C(=O)[C@@H]5CCCN5C)CC4)c3n2C)c1OC` [10(3), (S)-1-methyl-7-[4-(1-methyl-pyrrolidine-2-carbonyl)-piperazin-1-ylmethyl]-1H-indole-2-carboxylic acid-(5-tert-butyl-2-methoxy-3-methylcarbamoyl-phenyl)-amide], the IC50 on cytochrome P450 2C9 came out at 1600 nM. In addition, the inhibition at 1 µM on p38 MAP-kinase was determined as 99.3%. Moreover, in series [1], the concentration in solution (solubility at 2 h) came to 590 µg/mL (≈ 979 µM).
Taken in the same sequence, the figures for `COc1c(CN2CCN(C(C)C)CC2)cc(C(C)(C)C)cc1NC(=O)c1cc2cccc(CN3CCN(C(=O)[C@@H]4CCCN4C)CC3)c2n1C` [9(7), (S)-1-methyl-7-[4-(1-methyl-pyrrolidine-2-carbonyl)-piperazin-1-ylmethyl]-1H-indole-2-carboxylic acid-[5-tert-butyl-3-(4-isopropyl-piperazin-1-ylmethyl)-2-methoxy-phenyl]-amide] were 44700 nM, 98.8% and 880 µg/mL (≈ 1280 µM).
Taken in the same sequence, the figures for `COc1c(NC(=O)c2cc3cccc(CN4CCN(C(=O)[C@@H]5CCCN5)CC4)c3n2C)cc(C(C)(C)C)cc1NS(C)(=O)=O` [1(4), (S)-1-methyl-7-[4-(pyrrolidine-2-carbonyl)-piperazin-1-ylmethyl]-1H-indole-2-carboxylic acid(5-tert-butyl-3-methanesulphonylamino-2-methoxy-phenyl)-amide] were 890 nM, 99.2% and 100 µg/mL (≈ 160 µM).
